From PubChem BioAssay AID1963835 (Molecular Pharmacology Branch, DTP, NCI, 2024)
Values joined by “and” are separate entries in the source; they are usually repeats but may differ in a detail not shown here. Equal values may be shown once.

Tested on: 699152-130-R-J1-PDC complex spheroid viability
Assay: Anticancer human tumor 699152-130-R-J1-PDC patient-derived pancreatic carcinoma cell line growth inhibition [POLQ]
Details: for viability, T/C: stronger effect = lower value
Procedure: Multicellular complex tumor spheroid response to Polymerase (POL) inhibitors (novobiocin, ART-558, RP6685) in combination with a variety of drugs and investigational agents in selected tumor cell lines
The POL inhibitors (novobiocin, ART-558, and RP6685) were evaluated both individually and in combination with standard of care and investigational anticancer small molecules within a complex spheroid model of solid tumors. . Complex spheroids include a stromal component modeled by human endothelial cells (HUVEC) and fibroblasts modeled by human mesenchymal stem cells (MSCs). The concentration ranges selected for each drug and investigational agent were based upon clinically achievable concentrations if the clinical Cmax of the agent was known.
Compounds. The drugs and investigational agents: novobiocin (NSC847541), ART-558 (NSC835418), RP-6685 (NSC848927), peposertib (NSC802822), ceralasertib (NSC780249), elimusertib (NSC800525), camonsertib (NSC841442), AZD-1390 (NSC803789), olaparib (NSC753686), talazoparib (NSC767125), rucaparib (NSC756644), sotorasib (NSC818433), MRTX-1133 (NSC836407), SN-38 (NSC673596), topotecan (NSC609699), epotoside (NSC141540), doxorubicin (NSC123127), gemcitabine (NSC613327), 5-fluorouracil (NSC19893), paclitaxel (NSC125973), vemurafenib (NSC761431), MSA-2 (NSC828583), SN-011 (NSC837082), adavosertib (NSC754352), prexasertib (NSC758257), carboplatin (NSC241240) and oxaliplatin (NSC266046), were obtained from the National Cancer Institute (NCI) Developmental Therapeutics Program Chemical Repository (21). The FDA-approved anticancer drug set is available from the Developmental Therapeutics Program at https://dtp.cancer.gov/organization/dscb/obtaining/. […] The stock solutions were prepared in dimethyl sulfoxide (DMSO, Sigma-Aldrich, St. Louis, MO, cat. D2650), except for the platinum compounds which were prepared in saline (Quality Biological, Gaithersburg, MD, cat. 114-055-101), at 800-fold the tested concentration and stored at -70 degrees C prior to their use. All drugs and investigational agents were tested over a range starting from a high concentration at or near the clinical Cmax and decreasing in half-log increments. If the clinical Cmax for an agent had not been determined, the highest concentration tested was 10 microM, except for SN-38, which was tested at a high concentration of 1 microM.
Cell Culture. All cells were maintained in an incubator at 37 degrees C and 5% CO2 with 95% humidity. The PDC lines were cultured according to standard operating procedures established by the NCI PDMR (https://pdmr.cancer.gov). Table 3 of the manuscript, lists the cell lines along with the number of the three cell types plated to form the mct-spheroids and media for tumor cell growth. After thawing, all PDC lines, except 997537-175-T-J1-PDC and 415267-285-R-J2-PDC, were cultured in Matrigel-coated flasks prepared with a working solution of 1X Ham's F-12 nutrient mix, without supplementation (Thermo Fisher Scientific, cat. 11765054), 100 U/mL penicillin-streptomycin (Thermo Fisher Scientific, cat. 15140122), and 2.5% Matrigel (Corning Inc., Corning, NY, cat. 354248) for the first three passages. The two PDC lines 997537-175-T-J1-PDC and 415267-285-R-J2-PDC were cultured on uncoated flasks. The 857933-349-R-J2-PDC line was cultured in 6C/Colon 1B media containing advanced DMEM/F-12 (Thermo Fisher Scientific, cat. 12634028), 10 mM HEPES (Thermo Fisher Scientific, cat. 15630080), 1X GlutaMAX supplement (Thermo Fisher Scientific, cat. 35050061), 0.1 mg/mL primocin (InvivoGen, San Diego, CA, cat. ant-pm-2), 10% defined fetal bovine serum, heat inactivated (HyClone Laboratories Inc., Logan, UT, cat. SH30070.03HI), 50% L-WRN conditioned media (ATCC, cat. CRL-3276), 1.25 mM N-Acetyl-L-cysteine (Sigma-Aldrich, cat. A9165), 10 mM nicotinamide (Sigma-Aldrich, cat. N0636), 1X B-27 supplement (Thermo Fisher Scientific, cat. 17504044), 1X N-2 supplement (Thermo Fisher Scientific, cat. […]

[1] = curve of first compound, second compound 0.0316 µM
[2] = curve of first compound, second compound 0.1 µM
[3] = curve of first compound, second compound 0.316 µM
[4] = curve of first compound, second compound 1 µM
[5] = curve of first compound, second compound 3.16 µM
[6] = curve of first compound, second compound 10 µM
[7] = second compound 0.0316 µM, first compound 0.0316 µM
[8] = second compound 0.0316 µM, first compound 0.1 µM
[9] = second compound 0.0316 µM, first compound 0.316 µM
[10] = second compound 0.0316 µM, first compound 1 µM
[11] = second compound 0.1 µM, first compound 0.0316 µM
[12] = second compound 0.1 µM, first compound 0.1 µM
[13] = second compound 0.1 µM, first compound 0.316 µM
[14] = second compound 0.1 µM, first compound 1 µM
[15] = second compound 0.316 µM, first compound 0.0316 µM
[16] = second compound 0.316 µM, first compound 0.1 µM
[17] = second compound 0.316 µM, first compound 0.316 µM
[18] = second compound 0.316 µM, first compound 1 µM
[19] = second compound 1 µM, first compound 0.0316 µM
[20] = second compound 1 µM, first compound 0.1 µM
[21] = second compound 1 µM, first compound 0.316 µM
[22] = second compound 1 µM, first compound 1 µM
[23] = second compound 3.16 µM, first compound 0.0316 µM
[24] = second compound 3.16 µM, first compound 0.1 µM
[25] = second compound 3.16 µM, first compound 0.316 µM
[26] = second compound 3.16 µM, first compound 1 µM
[27] = second compound 10 µM, first compound 0.0316 µM
[28] = second compound 10 µM, first compound 0.1 µM
[29] = second compound 10 µM, first compound 0.316 µM
[30] = second compound 10 µM, first compound 1 µM
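Note: spheroids exposed to agents for 7 days before viability reading.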
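Throughout, for viability, T/C: percent of DMSO vehicle control viability so 100% = vehicle and 0% = no viable signal.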

Question: Which IC50 [1] does the source give for `COc1cccc(OCCCN)c1-c1cc(Nc2cnc(C#N)cn2)n[nH]1` + Nc1ccc(C#CCN(C(=O)Cc2ncc(C(F)(F)F)cc2C(F)(F)F)c2ccc(F)cc2)nn1 here?
Answer: > 1000 nM

Question: And the IC50 [2]?
Answer: > 1000 nM

Question: And the IC50 [3]?
Answer: > 1000 nM

Question: What about the IC50 [4] of the same compound?
Answer: > 1000 nM

Question: And the IC50 [5]?
Answer: > 1000 nM

Question: What about the IC50 [6] of the same compound?
Answer: > 1000 nM

Question: And the viability, T/C (second compound 0.0316 µM, first compound 0.00316 µM)?
Answer: 90.3%

Question: And the viability, T/C (second compound 0.0316 µM, first compound 0.01 µM)?
Answer: 101%

Question: And the viability, T/C [7]?
Answer: 72.8%

Question: What about the viability, T/C [8] of the same compound?
Answer: 64.2%

Question: What about the viability, T/C [9] of the same compound?
Answer: 62.4%

Question: And the viability, T/C [10]?
Answer: 65%

Question: And the viability, T/C (second compound 0.1 µM, first compound 0.00316 µM)?
Answer: 92.2%

Question: What about the viability, T/C (second compound 0.1 µM, first compound 0.01 µM) of the same compound?
Answer: 101%

Question: And the viability, T/C [11]?
Answer: 73.4%

Question: What about the viability, T/C [12] of the same compound?
Answer: 59.3%

Question: And the viability, T/C [13]?
Answer: 65.8%

Question: And the viability, T/C [14]?
Answer: 56.1%

Question: And the viability, T/C (second compound 0.316 µM, first compound 0.00316 µM)?
Answer: 99.3%

Question: And the viability, T/C (second compound 0.316 µM, first compound 0.01 µM)?
Answer: 93.8%

Question: What about the viability, T/C [15] of the same compound?
Answer: 74.8%

Question: And the viability, T/C [16]?
Answer: 68.6%

Question: What about the viability, T/C [17] of the same compound?
Answer: 60.8%

Question: And the viability, T/C [18]?
Answer: 59.9%

Question: What about the viability, T/C (second compound 1 µM, first compound 0.00316 µM) of the same compound?
Answer: 111%

Question: And the viability, T/C (second compound 1 µM, first compound 0.01 µM)?
Answer: 100%

Question: What about the viability, T/C [19] of the same compound?
Answer: 79.6%

Question: And the viability, T/C [20]?
Answer: 69%

Question: What about the viability, T/C [21] of the same compound?
Answer: 62.2%

Question: What about the viability, T/C [22] of the same compound?
Answer: 55.8%

Question: What about the viability, T/C (second compound 3.16 µM, first compound 0.00316 µM) of the same compound?
Answer: 109%

Question: What about the viability, T/C (second compound 3.16 µM, first compound 0.01 µM) of the same compound?
Answer: 94.4%

Question: What about the viability, T/C [23] of the same compound?
Answer: 70.1%

Question: What about the viability, T/C [24] of the same compound?
Answer: 60.6%

Question: What about the viability, T/C [25] of the same compound?
Answer: 66.1%

Question: What about the viability, T/C [26] of the same compound?
Answer: 65%

Question: What about the viability, T/C (second compound 10 µM, first compound 0.00316 µM) of the same compound?
Answer: 121%

Question: What about the viability, T/C (second compound 10 µM, first compound 0.01 µM) of the same compound?
Answer: 92.3%

Question: What about the viability, T/C [27] of the same compound?
Answer: 71.8%

Question: What about the viability, T/C [28] of the same compound?
Answer: 64.7%

Question: And the viability, T/C [29]?
Answer: 66.3%

Question: And the viability, T/C [30]?
Answer: 60.5%

Question: What does the source list for `CC[C@@]1(O)C(=O)OCc2c1cc1n(c2=O)Cc2cc3c(CN(C)C)c(O)ccc3nc2-1`?
Answer: viability, T/C (compound 0.000316 µM): 93.1% and 110% and 102%; viability, T/C (compound 0.001 µM): 97.6% and 90% and 108%; viability, T/C (compound 0.00316 µM): 98.8% and 105% and 99.5%; viability, T/C (compound 0.01 µM): 94.2% and 111% and 93.4%; viability, T/C (compound 0.0316 µM): 72.9% and 81.9% and 79.4%; viability, T/C (compound 0.1 µM): 59.6% and 68.9% and 54.6%; IC50 (curve of compound): > 100 nM

Question: For `CCc1cc2c(N3CCc4c(cc(Cn5ccnc5)cc4-c4cn(C)nc4C(F)(F)F)C3=O)cc(C)nc2c(OC)n1` + COC1C(OC(N)=O)C(O)C(Oc2ccc3c(O)c(NC(=O)c4ccc(O)c(CC=C(C)C)c4)c(=O)oc3c2C)OC1(C)C, which IC50 [1] is on record?
Answer: > 10000 nM

Question: And the IC50 [2]?
Answer: > 10000 nM

Question: What about the IC50 [3] of the same compound?
Answer: > 10000 nM

Question: What about the IC50 [4] of the same compound?
Answer: > 10000 nM

Question: What about the IC50 [5] of the same compound?
Answer: > 10000 nM

Question: What about the IC50 [6] of the same compound?
Answer: > 10000 nM

Question: And the viability, T/C [7]?
Answer: 91%

Question: What about the viability, T/C [8] of the same compound?
Answer: 91.9%

Question: What about the viability, T/C [9] of the same compound?
Answer: 89.5%

Question: And the viability, T/C [10]?
Answer: 93.2%

Question: And the viability, T/C (second compound 0.0316 µM, first compound 3.16 µM)?
Answer: 101%

Question: What about the viability, T/C (second compound 0.0316 µM, first compound 10 µM) of the same compound?
Answer: 100%

Question: What about the viability, T/C [11] of the same compound?
Answer: 93.9%

Question: What about the viability, T/C [12] of the same compound?
Answer: 91.4%

Question: And the viability, T/C [13]?
Answer: 91.7%

Question: And the viability, T/C [14]?
Answer: 101%

Question: What about the viability, T/C (second compound 0.1 µM, first compound 3.16 µM) of the same compound?
Answer: 96.9%

Question: What about the viability, T/C (second compound 0.1 µM, first compound 10 µM) of the same compound?
Answer: 99.5%

Question: What about the viability, T/C [15] of the same compound?
Answer: 94.5%

Question: And the viability, T/C [16]?
Answer: 91.4%

Question: And the viability, T/C [17]?
Answer: 89.8%

Question: What about the viability, T/C [18] of the same compound?
Answer: 96.1%

Question: What about the viability, T/C (second compound 0.316 µM, first compound 3.16 µM) of the same compound?
Answer: 99%

Question: What about the viability, T/C (second compound 0.316 µM, first compound 10 µM) of the same compound?
Answer: 106%

Question: And the viability, T/C [19]?
Answer: 98.8%

Question: And the viability, T/C [20]?
Answer: 83.5%

Question: What about the viability, T/C [21] of the same compound?
Answer: 97.2%

Question: What about the viability, T/C [22] of the same compound?
Answer: 96%

Question: What about the viability, T/C (second compound 1 µM, first compound 3.16 µM) of the same compound?
Answer: 94.2%

Question: And the viability, T/C (second compound 1 µM, first compound 10 µM)?
Answer: 99.8%

Question: And the viability, T/C [23]?
Answer: 92.4%

Question: And the viability, T/C [24]?
Answer: 86.8%

Question: What about the viability, T/C [25] of the same compound?
Answer: 84.2%

Question: And the viability, T/C [26]?
Answer: 98.5%

Question: And the viability, T/C (second compound 3.16 µM, first compound 3.16 µM)?
Answer: 95%

Question: And the viability, T/C (second compound 3.16 µM, first compound 10 µM)?
Answer: 102%

Question: And the viability, T/C [27]?
Answer: 93.2%

Question: And the viability, T/C [28]?
Answer: 102%

Question: And the viability, T/C [29]?
Answer: 88.5%

Question: And the viability, T/C [30]?
Answer: 100%

Question: What about the viability, T/C (second compound 10 µM, first compound 3.16 µM) of the same compound?
Answer: 105%

Question: What about the viability, T/C (second compound 10 µM, first compound 10 µM) of the same compound?
Answer: 106%
